This assay concerns the target T1, human Nav1.8 channels (Homo sapiens, UniProt Q9Y5Y9).
T1 construct: expressed in transfected cells
Put plainly: Nav1.8 Qube automated patch-clamp assay. It is filed as cell-based. The settings on record: human Nav1.8 stably expressed in HEK 293 cells; whole-cell voltage clamp, room temperature; resting or inactivated state not specified; read-out: IC50 values (nM) for Examples in the Nav1.8 Qube Assay. The protocol:
Compounds were tested on human Nav1.8 and Nav1.5 channels stably expressed in human embryo kidney (HEK) 293 cells. Sodium current measurements on Qube® were conducted as follows: automated 384-well patch-clamp assays on the Qube® platform (Sophion Biosciences) were used to measure the inhibition of sodium flow through human Nav1.8 and Nav1.5 channels. Whole-cell voltage-clamp recordings were performed in QChips® (Sophion Biosciences) at room temperature. Nav1.8 current measurements on Qube® were obtained as follows: Nav1.8 currents were elicited with a 10 second 1 Hertz (Hz) pulse train from a holding potential of −90 millivolts (mV), delivered to the cells once per minute in the control condition (DMSO only) and after compound addition. The 1 hertz pulse train stimulation consisted of ten test pulses to 10 millivolt (mV) for 20 milliseconds (ms), each of which was followed by a 980 millisecond repolarization to −67 millivolts. At the end of the 10 second pulse train stimulation, a second hyperpolarization step to −100 millivolt (mV) was used to recover Nav1.8 from fast inactivation. The peak currents elicited by the 1st and 10th test pulses were used to determine IC50 values for resting inhibition and inactivated state inhibition. Nav1.5 current measurements on Qube® were obtained as follows: Nav1.5 currents were elicited with a 20 second 3 Hertz pulse train in the control condition (DMSO only) and after compound addition. The pulse train consisted of sixty 20 millisecond test pulses to 0 millivolt from a holding potential of −80 millivolt (mV). The average peak currents elicited by the last 3 test pulses were used to determine IC50 values for Nav1.5 inhibition.
The following buffers were used for the Qube® recordings: External buffer for Nav1.8 Qube® recording: 150 NaCl, 2 CaCl2, 5 KCl, 1 Mg Cl2, 10 HEPES, 12 Dextrose; External buffer for Qube® Nav1.5 recording: 120 N-Methyl-D-Glucamine, 40 NaCl, 1 KCl, 2.7 CaCl2, 5 HEPES, 0.5 MgCl2: and Internal buffer for Qube® recording: 120 CsF, 30 CsCl, 10 EGTA, 5 HEPES, 5 NaF, 2 MgCl2.
For all Qube® experiments offline analysis was used to determine percent inhibition as a function of drug concentration. IC50 values were determined by fitting to the Hill equation.
(In general: Patch clamp records ionic current or voltage across a cell membrane.)
T1 sequence (Q9Y5Y9 whole entry): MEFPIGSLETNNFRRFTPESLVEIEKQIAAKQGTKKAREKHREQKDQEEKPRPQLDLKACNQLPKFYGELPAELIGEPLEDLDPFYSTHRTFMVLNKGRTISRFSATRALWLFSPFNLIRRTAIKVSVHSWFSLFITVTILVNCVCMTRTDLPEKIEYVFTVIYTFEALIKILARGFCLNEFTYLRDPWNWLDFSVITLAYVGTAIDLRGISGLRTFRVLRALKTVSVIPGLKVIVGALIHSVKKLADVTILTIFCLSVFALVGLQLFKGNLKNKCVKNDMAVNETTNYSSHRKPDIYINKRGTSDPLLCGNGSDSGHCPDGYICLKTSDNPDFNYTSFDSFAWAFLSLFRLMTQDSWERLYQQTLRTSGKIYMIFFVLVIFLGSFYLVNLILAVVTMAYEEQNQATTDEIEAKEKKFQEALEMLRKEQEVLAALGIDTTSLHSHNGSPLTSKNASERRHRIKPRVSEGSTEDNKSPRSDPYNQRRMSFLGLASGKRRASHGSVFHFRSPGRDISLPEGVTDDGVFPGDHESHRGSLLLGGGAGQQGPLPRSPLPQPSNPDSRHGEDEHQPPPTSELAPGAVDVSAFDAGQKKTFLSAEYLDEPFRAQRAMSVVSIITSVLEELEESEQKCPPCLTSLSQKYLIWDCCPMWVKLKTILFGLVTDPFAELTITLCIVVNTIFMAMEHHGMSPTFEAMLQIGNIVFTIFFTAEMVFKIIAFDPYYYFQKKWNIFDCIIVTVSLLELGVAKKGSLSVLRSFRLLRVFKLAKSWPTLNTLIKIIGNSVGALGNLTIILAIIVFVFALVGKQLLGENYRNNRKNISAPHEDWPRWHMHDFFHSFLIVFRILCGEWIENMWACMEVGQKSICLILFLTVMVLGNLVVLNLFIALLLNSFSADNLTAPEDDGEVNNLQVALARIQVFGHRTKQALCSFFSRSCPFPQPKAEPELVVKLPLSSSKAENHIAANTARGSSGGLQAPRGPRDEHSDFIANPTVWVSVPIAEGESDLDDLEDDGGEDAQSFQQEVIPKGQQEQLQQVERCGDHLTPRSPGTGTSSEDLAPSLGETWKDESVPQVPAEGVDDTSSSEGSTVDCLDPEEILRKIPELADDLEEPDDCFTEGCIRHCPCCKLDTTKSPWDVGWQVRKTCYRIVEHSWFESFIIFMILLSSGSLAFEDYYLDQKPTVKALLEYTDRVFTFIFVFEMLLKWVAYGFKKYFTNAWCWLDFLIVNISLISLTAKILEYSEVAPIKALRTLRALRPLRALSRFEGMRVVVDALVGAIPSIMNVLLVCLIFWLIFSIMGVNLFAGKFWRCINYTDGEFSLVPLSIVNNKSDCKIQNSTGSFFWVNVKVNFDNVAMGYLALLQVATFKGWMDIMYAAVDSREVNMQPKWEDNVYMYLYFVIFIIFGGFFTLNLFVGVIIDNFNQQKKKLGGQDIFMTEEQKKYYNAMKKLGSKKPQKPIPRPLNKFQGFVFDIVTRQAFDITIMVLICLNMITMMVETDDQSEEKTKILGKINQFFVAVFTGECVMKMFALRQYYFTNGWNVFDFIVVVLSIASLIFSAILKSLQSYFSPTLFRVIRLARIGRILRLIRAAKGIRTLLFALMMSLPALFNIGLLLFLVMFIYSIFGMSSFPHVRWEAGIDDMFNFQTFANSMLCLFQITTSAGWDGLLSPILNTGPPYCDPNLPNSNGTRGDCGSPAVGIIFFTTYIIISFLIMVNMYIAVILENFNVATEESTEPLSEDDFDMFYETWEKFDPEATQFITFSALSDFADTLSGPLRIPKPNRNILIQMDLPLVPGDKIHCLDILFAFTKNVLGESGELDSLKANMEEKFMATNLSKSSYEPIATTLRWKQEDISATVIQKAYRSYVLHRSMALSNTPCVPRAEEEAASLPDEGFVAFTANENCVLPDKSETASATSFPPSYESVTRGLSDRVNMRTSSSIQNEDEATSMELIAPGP
For the compound `Cc1nc(N2CCC(F)(F)CC2)c(C(=O)Nc2cncc(S(N)(=O)=O)c2)c(C)c1Cl` [Example 189, 5-chloro-2-(4,4-difluoro-1-piperidyl)-4,6-dimethyl-N-(5-sulfamoyl-3-pyridyl)pyridine-3-carboxamide], the concentration for half-maximal inhibition (IC50) is 13 nM.
In the case of `O=C(Nc1cc[nH]c(=O)c1)c1cc(Cl)c(C2CC2)nc1N1CCCC(F)(F)CC1` [Example 27, 5-chloro-6-cyclopropyl-2-(4,4-difluoroazepan-1-yl)-N-(2-oxo-1,2-dihydropyridin-4-yl)nicotinamide], the IC50 came to 31 nM.
Then `N#Cc1cc(C(=O)Nc2ccnc(S(N)(=O)=O)c2)c(N2CCC(F)(F)CC2)nc1C(F)(F)F` [Example 43, 5-cyano-2-(4,4-difluoropiperidin-1-yl)-N-(2-sulfamoylpyridin-4-yl)-6-(trifluoromethyl)nicotinamide], with 37 nM.
The result for `C[C@H]1CN(c2ncc(C(F)(F)F)cc2C(=O)Nc2ccnc(S(N)(=O)=O)c2)CCC1(F)F` (single isomer, unassigned) [Example 47] reads 3.9 nM; that for `Cc1nc(N2CCOC(C(F)F)CC2)c(C(=O)Nc2ccnc(S(N)(=O)=O)c2)cc1Cl` (single isomer, unassigned) [Example 117, 5-chloro-2-[(7S or 7R)-7-(difluoromethyl)-1,4-oxazepan-4-yl]-6-methyl-N-(2-sulfamoylpyridin-4-yl)pyridine-3-carboxamide], 18 nM.
Then `Cc1nc(N2CCC(F)(F)C(C)C2)c(C(=O)Nc2ccnc(S(N)(=O)=O)c2)cc1Cl` (single isomer, unassigned) [Example 54, (S or R)-5-chloro-2-(4,4-difluoro-3-methylpiperidin-1-yl)-6-methyl-N-(2-sulfamoylpyridin-4-yl)nicotinamide], with 2.1 nM.
In the case of `CS(=O)(=O)n1cc(NC(=O)c2cc(C(F)(F)F)cnc2N2CCCC(F)(F)CC2)c2cccnc21` [Example 30, 2-(4,4-difluoroazepan-1-yl)-N-[1-(methylsulfonyl)-1H-pyrrolo[2,3-b]pyridin-3-yl]-5-(trifluoromethyl)pyridine-3-carboxamide], the IC50 is 4 nM.
On to `CS(=O)(=O)c1cncc(NC(=O)c2cc(C(F)(F)F)cnc2N2CCCCCC2)c1` [Example 6, 2-(azepan-1-yl)-N-(5-(methylsulfonyl)pyridin-3-yl)-5-(trifluoromethyl)nicotinamide], for which the IC50 turned out to be 355 nM.
`O=C(Nc1cc[nH]c(=O)c1)c1cc(C(F)(F)F)cnc1N1CCC2(CC1)CC2` [Example 208, N-(2-oxo-1,2-dihydropyridin-4-yl)-2-(6-azaspiro[2.5]octan-6-yl)-5-(trifluoromethyl)nicotinamide]: the half-inhibitory concentration (IC50) worked out at 287 nM.
The result for `CC1CN(c2ncc(C(F)(F)F)cc2C(=O)Nc2ccnc(C(N)=O)c2)CCC1(F)F` (single isomer, unassigned) [Example 157, N-(2-carbamoyl-4-pyridyl)-2-[(3R or 3S)-4,4-difluoro-3-methyl-1-piperidyl]-5-(trifluoromethyl)-pyridine-3-carboxamide] reads 82 nM.
`NS(=O)(=O)c1cc(NC(=O)c2cc(C(F)(F)F)cnc2N2CCC(C(F)(F)F)CC2)ccn1` [Example 82, N-(2-sulfamoyl-4-pyridyl)-5-(trifluoromethyl)-2-[4-(trifluoromethyl)-1-piperidyl]pyridine-3-carboxamide]: the IC50 is 54 nM.
Turning to `COc1nc(N2CCCC(F)(F)CC2)c(C(=O)Nc2ccnc(S(=O)(=O)NC(C)(C)C)c2)cc1Cl` [Example 42, N-[2-(tert-butylsulfamoyl)pyridin-4-yl]-5-chloro-2-(4,4-difluoroazepan-1-yl)-6-methoxypyridine-3-carboxamide], the IC50 turned out to be 341 nM.
Then `CC1CN(c2ncc(C(F)(F)F)cc2C(=O)Nc2ccnc(S(N)(=O)=O)c2)CCC1(Cl)Cl` (single isomer, unassigned) [Example 50, (S or R)-2-(4,4-dichloro-3-methylpiperidin-1-yl)-N-(2-sulfamoylpyridin-4-yl)-5-(trifluoromethyl)nicotinamide], with 14 nM; and `NS(=O)(=O)c1cc(NC(=O)c2cc(C(F)(F)F)cnc2N2CCCC(c3cc(F)cc(F)c3)C2)ccn1` (stereo not shown) [Example 81, 2-[3-(3,5-difluorophenyl)-1-piperidyl]-N-(2-sulfamoyl-4-pyridyl)-5-(trifluoromethyl)pyridine-3-carboxamide], with 39 nM; and `Cc1nc(N2CCCC(F)(F)CC2)c(C(=O)Nc2cnn(S(C)(=O)=O)c2)c(C)c1Cl` [Example 32, 5-chloro-2-(4,4-difluoroazepan-1-yl)-4,6-dimethyl-N-[1-(methylsulfonyl)-1H-pyrazol-4-yl]pyridine-3-carboxamide], with 4.3 nM.
Then `CC1(C)CN(c2ncc(C(F)(F)F)cc2C(=O)Nc2ccnc(S(N)(=O)=O)c2)CC(C(F)(F)F)O1` (single isomer, unassigned) [Example 136, (S or R)-2-(2,2-dimethyl-6-(trifluoromethyl)-morpholino)-N-(2-sulfamoylpyridin-4-yl)-5-(trifluoromethyl)nicotinamide], with 494 nM; and `CC1(O)CCCN(c2ncc(C(F)(F)F)cc2C(=O)Nc2ccnc(S(N)(=O)=O)c2)C1` (stereo not shown) [Example 112, 2-(3-hydroxy-3-methyl-1-piperidyl)-N-(2-sulfamoyl-4-pyridyl)-5-(trifluoromethyl)pyridine-3-carboxamide], with 8410 nM.
Then `Cc1nc(N2CCC3(CC2)CC3)c(C(=O)Nc2cncc(S(N)(=O)=O)c2)c(C)c1Cl` [Example 190, 2-(6-azaspiro[2.5]octan-6-yl)-5-chloro-4,6-dimethyl-N-(5-sulfamoyl-3-pyridyl)pyridine-3-carboxamide], with 31 nM; and `NS(=O)(=O)c1cncc(NC(=O)c2cc(C(F)(F)F)cnc2N2CCCC(F)(F)CC2)c1` [Example 144, 2-(4,4-difluoroazepan-1-yl)-N-(5-sulfamoyl-3-pyridyl)-5-(trifluoro-methyl)pyridine-3-carboxamide], with 36 nM; and `NS(=O)(=O)c1cc(NC(=O)c2cc(C(F)(F)F)cnc2N2Cc3cccc(OC(F)(F)F)c3C2)ccn1` [Example 90, N-(2-sulfamoyl-4-pyridyl)-2-[4-(trifluoromethoxy)isoindolin-2-yl]-5-(trifluoromethyl)pyridine-3-carboxamide], with 294 nM.
For `CC1CCN(c2ncc(C(F)(F)F)cc2C(=O)Nc2ccnc(S(N)(=O)=O)c2)CCC1(F)F` (stereo not shown) [Example 115, 2-(4,4-difluoro-5-methylazepan-1-yl)-N-(2-sulfamoylpyridin-4-yl)-5-(trifluoromethyl)pyridine-3-carboxamide], the IC50 came to 1.6 nM.
The result for `Cc1nc(N2CCOC(C(F)F)C2)c(C(=O)Nc2ccnc(S(N)(=O)=O)c2)cc1Cl` (single isomer, unassigned) [Example 124, (S or R)-5-chloro-2-(2-(difluoromethyl)morpholino)-6-methyl-N-(2-sulfamoylpyridin-4-yl)nicotinamide] reads 50 nM.
As to `Cc1nc(N2CCC(F)(F)CC2)c(C(=O)Nc2ccnc(S(N)(=O)=O)c2)cc1OCC(F)(F)F` [Example 183], the IC50 was 82 nM.
Then `NS(=O)(=O)c1cc(NC(=O)c2cc(C(F)(F)F)cnc2N2CCC(Cl)(Cl)CC2)ccn1` [Example 29, 2-(4,4-Dichloropiperidin-1-yl)-N-(2-sulfamoylpyridin-4-yl)-5-(trifluoromethyl)nicotinamide], with 31 nM; and `NS(=O)(=O)c1cc(NC(=O)c2cc(C(F)(F)F)nnc2N2CCCC(F)(F)CC2)ccn1` [Example 179, 3-(4,4-difluoroazepan-1-yl)-N-(2-sulfamoylpyridin-4-yl)-6-(trifluoromethyl)pyridazine-4-carboxamide], with 102 nM; and `NS(=O)(=O)c1cc(NC(=O)c2cc(OC(F)F)cnc2N2CCCC(F)(F)CC2)ccn1` [Example 171, 2-(4,4-difluoroazepan-1-yl)-5-(difluoromethoxy)-N-(2-sulfamoylpyridin-4-yl)nicotinamide], with 9.2 nM.
Consider `NS(=O)(=O)c1cc(NC(=O)c2cc(-c3ccccc3)cnc2N2CCC(F)(F)CC2)ccn1` [Example 205, 2-(4,4-difluoropiperidin-1-yl)-5-phenyl-N-(2-sulfamoylpyridin-4-yl)nicotinamide], for which the IC50 was found to be 71 nM.
As for `NC(=O)c1cc(NC(=O)c2cc(C(F)(F)F)cnc2N2CCCCCC2)ccn1` [Example 203, 4-(2-(azepan-1-yl)-5-(trifluoromethyl)nicotinamido)picolinamide], the IC50 turned out to be 139 nM.

The IC50 is the concentration at which inhibition is half-maximal.

(Values after patent US20210387966A1, “2-AMINO-N-HETEROARYL-NICOTINAMIDES AS NAV1.8 INHIBITORS” (Merck Sharp & Dohme Corp., priority 2018, published 2021).)
